Test results taken from PMC6411751, “Use of machine learning to identify novel, behaviorally active antagonists of the insect odorant receptor co-receptor (Orco) subunit” (Scientific Reports, 2019).
Where a name gives a salt, the structure may show the parent alone. Read-outs that look alike come from different tables or passages of the source.

Key:
Agam\Orco = biological target: T1, Agam\Orco (Anopheles gambiae, UniProt Q7QCC7); assay: cell-based; assay type: cell-based
T1 construct: expressed in transfected cells; host or cells: Xenopus laevis oocytes injected with capped cRNA (plasmid pT7TS, gift of L. Zwiebel)
T1 sequence (Q7QCC7 1-478): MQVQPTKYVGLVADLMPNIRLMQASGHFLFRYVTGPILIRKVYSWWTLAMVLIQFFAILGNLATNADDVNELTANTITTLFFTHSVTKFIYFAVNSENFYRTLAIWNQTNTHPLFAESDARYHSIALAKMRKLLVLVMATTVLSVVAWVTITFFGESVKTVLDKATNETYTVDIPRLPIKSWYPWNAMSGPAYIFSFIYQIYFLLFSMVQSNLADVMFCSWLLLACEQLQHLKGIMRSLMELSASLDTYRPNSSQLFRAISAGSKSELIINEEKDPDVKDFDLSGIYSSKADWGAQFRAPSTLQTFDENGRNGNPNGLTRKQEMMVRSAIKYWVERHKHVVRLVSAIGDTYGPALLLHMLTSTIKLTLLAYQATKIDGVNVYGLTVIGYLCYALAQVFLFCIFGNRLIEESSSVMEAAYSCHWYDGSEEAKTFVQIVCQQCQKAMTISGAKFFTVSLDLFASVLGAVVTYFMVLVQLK
How it was run: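 Xenopus oocytes injected with 25 ng Agam\Orco cRNA, clamped at −70 mV in ND96 by two-electrode voltage clamp. After two 60 s pulses of 30 μM OLC12, compound applied 90 s then co-applied with OLC12 60 s; response was given as percent of prior OLC12 responses, sham-normalized.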

Agam\Or65 + Agam\Orco = biological target: T2, Agam\Or65 + Agam\Orco (Anopheles gambiae, UniProt Q7QCC7); assay: Inhibition of heteromeric OR in oocytes (eugenol activation); assay type: cell-based; settings: 100 µM antagonist; 100 nM eugenol
T2 construct: expressed in transfected cells; host or cells: Xenopus laevis oocytes
T2 sequence (Q7QCC7 1-478): T1 sequence (Q7QCC7 1-478)
Protocol: (§1) An automated parallel electrophysiology system (OpusExpress 6000 A, Molecular Devices) was used to record Orco agonist (OLC12) or odorant induced currents under two-electrode voltage clamp. Oocytes were perfused with ND96 (in mM: 96 NaCl, 2 KCl, 1 CaCl2, 1 MgCl2, 5 HEPES, pH 7.4). DMSO was used to prepare 1 M or 100 mM stock solutions of test compounds, which were then diluted in ND96 on the day of the experiment. Compounds were applied at a flow rate of 1.0 mL/min, with extensive washing in ND96 at 4.6 mL/min between applications. Micropipettes with resistances of 0.2–2.0 MΩ were filled with 3 M KCl. The holding potential was −70 mV. Current responses were filtered (4-pole, Bessel, low pass) at 20 Hz (−3 db) and sampled at 100 Hz. OpusXpress 1.1 software (Molecular Devices) was used to capture and store current responses.
(§2) To measure the ability of Orco antagonists to inhibit odorant activation, oocytes expressing heteromeric ORs (Orco + ORX) were exposed to a 30 sec application of odorant followed by a 20 min wash. Oocytes were then exposed to a 90 sec application of Orco antagonist, immediately followed by a 30 sec co-application of Orco antagonist and odorant. The current response to odorant in the presence of Orco antagonist was compared to the preceding response to odorant alone and represented as a percentage. This value was then normalized to the value obtained when the assay was run in the absence of antagonist (sham).
(§3) Figure S3. Effects of Orco antagonists on heteromeric ORs. […]
heteromeric complexes of odorant specificity subunits and Orco. The Orco antagonists tested were 3-isopropyl-6-methyl-catechol (3 I6 MC), a potent compound from the input training set, and two compounds id e ntified in Fig u re 4 an d Ta b le 1 : 2-tert-butyl-6-methylphenol (B MP ) and linalyl formate (LF) . […]
SEM (n = 4). […] Statistical significance of the data in each panel was assessed by one-way analysis of variance followed by Dunnett’s […]

Cqui\Or21 + Cqui\Orco = assay: Inhibition of heteromeric OR in oocytes (3-methylindole or OLC12 activation); assay type: cell-based, Culex quinquefasciatus; settings: 100 µM antagonist; for inhibition of odorant activation: 30 nM 3-methylindole; for antagonism of OLC12 (Orco agonist) activation of heteromeric OR: 3 µM OLC12
Protocol: as §1, §2, §3
heteromeric complexes of odorant specificity subunits and Orco. The Orco antagonists tested were 3-isopropyl-6-methyl-catechol (3 I6 MC), a potent compound from the input training set, and two compounds id e ntified in Fig u re 4 an d Ta b le 1 : 2-tert-butyl-6-methylphenol (B MP ) and linalyl formate (LF) . These compounds were tested for antagonist activity against odorant activation of three ORs from Anopheles gambiae (Agam\Or28 + Agam\Orco, Agam\Or39 + A ga m\Orco, Agam\Or65 + A ga m\Orco), o ne O R fro m Culex quinquefasciatus, the southern house mosquito (Cq u i\Or21 + Cqui\Orco) an d on e O R f ro m Drosophila melanogaster (Dme l\Or35a + Dmel\Orco). Each OR was activated by its cognate odorant agonist applied at an approximate EC50 concentration. […]
SEM (n = 4). […] Statistical significance of the data in each panel was assessed by one-way analysis of variance followed by Dunnett’s multiple comparison test using the pre-normalized values for each antagonist compared to the values obtained in the sham recordings (*, p < 0 .0 5; **, p < 0. 01; ***, p < 0 . 00 1 ).

Q: How did the “more potent than LF” value (Agam\Orco) turn out when `Cc1cccc(C(C)(C)C)c1O` [BMP, 2-tert-butyl-6-methylphenol] was run?
A: Its value is 5 fold.

Q: What about the IC50 (Agam\Orco; 10 µM OLC12, n = 4-7, read-out: IC50 for inhibition of Agam\Orco activation by 10 µM OLC12) of the same compound?
A: Its IC50 is 12 ± 2 µM.

Q: And the IC50 (Agam\Orco; 100 µM OLC12, n = 3-9, read-out: IC50 for inhibition of Agam\Orco activation by 100 µM OLC12)?
A: The IC50 was 137 ± 38 µM.

Q: What about the “mechanism of inhibition of Orco agonist (OLC12) responses” value (Agam\Orco; 10 vs 100 µM OLC12 shifts inhibition curve) of the same compound?
A: The value was “competitive”.

Q: And the IC50 (Agam\Orco; Table 1, inhibition of Agam\Orco activated by 30 µM OLC12, mean ± SEM (n = 3–8), read-out: IC50)?
A: Its IC50 is 48 ± 5 µM.

Q: And the “inhibition of odorant activation” value (Agam\Or65 + Agam\Orco)?
A: Its value is “able to inhibit odorant activation”.

Q: What about the “inhibition of odorant activation” value (Cqui\Or21 + Cqui\Orco) of the same compound?
A: Its value is “able to inhibit odorant activation”.

Q: And the “antagonism of OLC12 (Orco agonist) activation of heteromeric OR” value (“antagonism of OLC12” below) (Cqui\Or21 + Cqui\Orco)?
A: The value was “able to antagonize OLC12”.

Q: For `Cc1ccc(C(C)C)c(O)c1O` [3I6MC, 3-isopropyl-6-methyl catechol], which “inhibition of OLC12 activation” value (Agam\Orco; 100 µM compound, 30 µM OLC12) is on record?
A: The value was “strongly inhibited”.

Q: And the IC50 (Agam\Orco; Agam\Orco activated by 30 µM OLC12, read-out: IC50)?
A: Its IC50 is 41 ± 7 µM.

Q: And the “inhibition of odorant activation” value (Agam\Or65 + Agam\Orco)?
A: The value was “could inhibit odorant activation”.

Q: And the “inhibition of odorant activation” value (Cqui\Or21 + Cqui\Orco)?
A: The value was “could inhibit odorant activation”.

Q: And the “antagonism of OLC12” value (Cqui\Or21 + Cqui\Orco)?
A: Its value is “could antagonize OLC12”.

Q: With `C=CC(C)(CCC=C(C)C)OC=O` (centres unmarked) [LF, linalyl formate] as the compound, how does the IC50 (Agam\Orco; read-out: IC50) read?
A: Its IC50 is 251 ± 39 µM.

Q: And the “inhibition of odorant activation” value (Agam\Or65 + Agam\Orco)?
A: The value was “able to inhibit odorant activation”.

Q: What about the “inhibition of odorant activation” value (Cqui\Or21 + Cqui\Orco) of the same compound?
A: Its value is “able to inhibit odorant activation”.

Q: And the “antagonism of OLC12” value (Cqui\Or21 + Cqui\Orco)?
A: The value was “able to antagonize OLC12”.
